Each structure is given as a SMILES string. Values after ≈ are worked out from the molar mass of the structure shown. “Also recorded” adds a separate entry of the source. Where two headings read alike, the source gives them in different places.

Data set [1] deals with M. tuberculosis H37Rv. Put plainly: microbe, parasite or virus in culture. Type of data set: cell-based.
The subject of data set [2] is non-replicating M. tuberculosis ss18b. Briefly: microbe, parasite or virus in culture. Type of data set: cell-based. As to conditions: Mycobacterium tuberculosis.
The subject of data set [3] is intracellular M. tuberculosis H37Rv. Briefly: microbe, parasite or virus in culture. Type of data set: cell-based. Conditions: Mycobacterium tuberculosis; for IC50: read-out: Intracellular IC50; for IC90: read-out: Intracellular IC90.
The target of data set [4] is T1, EthA (Mycobacterium tuberculosis, UniProt P9WNF9). Type of data set: biochemical, M. tuberculosis.
The target of data set [5] is wild-type PyrG (Mycobacterium tuberculosis, UniProt P9WHK7). Type of data set: biochemical, M. tuberculosis. Also on record: % inhibition of wild-type PyrG: dose or concentration left out as unconfirmed.
In data set [6] the target is PyrG (Mycobacterium tuberculosis, UniProt P9WHK7). Type of data set: biochemical, M. tuberculosis.
The test system of data set [7] is M. tuberculosis H37Rv. Type of data set: cell-based, Mycobacterium tuberculosis.
In data set [8] the test system is HepG2. As to conditions: HepG2, at concentrations below 40 μg/ml.
Data set [9] relates to A549. Conditions: A549, at concentrations below 40 μg/ml.
Data set [10] deals with RAW 264.7. As to conditions: at concentrations below 40 μg/ml.
Data set [11] has as its system Huh7. As to conditions: Huh7, at concentrations below 40 μg/ml.
Data set [12] concerns the target T1, EthA. Conditions: cited from earlier work; for Km: read-out: Km (EthA substrate).
Data set [13] relates to M. tuberculosis H37Ra. Briefly: MIC against M. tuberculosis H37Ra. Type of data set: cell-based, Mycobacterium tuberculosis.
[14] abbreviates: Mycobacterium tuberculosis, H37RV, Figure 5, H37Rv, read-out: MIC.
Setting [15] is: Mycobacterium tuberculosis, H37RV, Table 1, replicating, read-out: H37Rv MIC.
Where [16] appears, read: Mycobacterium tuberculosis, H37RV, Table 2, strain H37Rv, read-out: MIC.
Setting [17] is: Mycobacterium tuberculosis, H37RV, Table S2, H37Rv, read-out: MIC.
[18] abbreviates: Mycobacterium tuberculosis, H37RV, Table S4, H37Rv, read-out: MIC.

Chain of wild-type PyrG (P9WHK7 whole entry): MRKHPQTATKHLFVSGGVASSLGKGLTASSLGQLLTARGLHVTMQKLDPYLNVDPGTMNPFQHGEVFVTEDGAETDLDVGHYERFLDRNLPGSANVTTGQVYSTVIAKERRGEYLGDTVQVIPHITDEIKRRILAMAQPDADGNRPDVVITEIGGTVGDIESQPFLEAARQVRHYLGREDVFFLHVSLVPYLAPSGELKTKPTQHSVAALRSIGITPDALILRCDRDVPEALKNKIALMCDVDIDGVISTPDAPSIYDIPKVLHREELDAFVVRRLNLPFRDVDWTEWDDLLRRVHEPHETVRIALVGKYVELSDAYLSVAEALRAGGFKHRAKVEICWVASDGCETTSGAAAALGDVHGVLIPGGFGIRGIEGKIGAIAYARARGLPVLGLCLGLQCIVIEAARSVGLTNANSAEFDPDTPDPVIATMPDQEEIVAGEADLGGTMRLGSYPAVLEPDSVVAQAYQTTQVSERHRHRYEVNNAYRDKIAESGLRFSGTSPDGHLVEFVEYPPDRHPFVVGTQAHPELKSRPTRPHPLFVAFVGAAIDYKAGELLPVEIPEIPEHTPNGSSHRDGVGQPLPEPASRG
T1 sequence (P9WNF9 whole entry): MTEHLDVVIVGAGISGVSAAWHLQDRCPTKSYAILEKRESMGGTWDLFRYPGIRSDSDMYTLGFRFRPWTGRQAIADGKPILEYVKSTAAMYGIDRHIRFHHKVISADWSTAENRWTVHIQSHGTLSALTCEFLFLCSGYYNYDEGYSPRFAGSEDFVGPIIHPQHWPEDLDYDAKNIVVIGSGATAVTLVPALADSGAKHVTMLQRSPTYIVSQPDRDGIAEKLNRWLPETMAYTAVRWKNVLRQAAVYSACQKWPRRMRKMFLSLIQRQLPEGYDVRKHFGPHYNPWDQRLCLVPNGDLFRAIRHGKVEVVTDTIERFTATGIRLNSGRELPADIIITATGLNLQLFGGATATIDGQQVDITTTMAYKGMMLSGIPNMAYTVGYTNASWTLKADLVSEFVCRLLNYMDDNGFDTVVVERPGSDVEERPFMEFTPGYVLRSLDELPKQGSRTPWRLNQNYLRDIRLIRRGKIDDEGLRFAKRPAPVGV
Chain of PyrG (P9WHK7 whole entry): as the sequence (P9WHK7 whole entry) above

`Cc1ccc(C(=O)Nc2ccc([N+](=O)[O-])cc2)s1` [compound 7947882, 5-methyl-N-(4-nitrophenyl)thiophene-2-carboxamide] yielded a melting point of 178 to 180 °C. The MIC in data set [1] (setting [14]) was 0.5 µg/mL (≈ 1.91 µM). Also, the MIC in data set [1] (setting [15]) came out at 0.5 µg/mL (≈ 1.91 µM). For the same compound, the MIC in data set [1] (setting [16]) is 0.5 µg/mL (≈ 1.91 µM). For the same compound, the MIC in [1] (setting [17]) was 0.5 µg/mL (≈ 1.91 µM). Further, in data set [1] (setting [18]), the MIC was determined as 0.5 µg/mL (≈ 1.91 µM). Moreover, in data set [2], the IC50 was found to be 2.5 µg/mL (≈ 9.53 µM) and the IC90 was determined as 10 µg/mL (≈ 38.1 µM). Moreover, in data set [3], the IC50 was found to be 0.625 µg/mL (≈ 2.38 µM) and the IC90 turned out to be 1.25 µg/mL (≈ 4.77 µM). Also, in data set [4], the “higher affinity for EthA than ETH” value is about 10 fold. For the same compound, in data set [5], the “effect on wild-type PyrG” value is “ineffective”. Further, in data set [6], the “time in which PyrG lost full activity” value was at most 4 h. The “abundance of nucleotide intermediates” value in data set [7] was “substantial increase”. For the same compound, the cytotoxicity entry in data set [8] is given as “not cytotoxic”. Moreover, the cytotoxicity entry in data set [9] is listed as “not cytotoxic”. Further, in [10], the cytotoxicity entry is given as “not cytotoxic”. The cytotoxicity entry in data set [11] is recorded as “not cytotoxic”.

On to `O=C(CCc1ccccc1)NC(=S)Nc1ccc(N2CCCCC2)cc1` [compound 7904688, 3-phenyl-N-[(4-piperidin-1-ylphenyl)carbamothioyl]propanamide], for which the MIC in data set [1] (setting [14]), in [1] (setting [15]) and in data set [1] (setting [16]) was 0.5 µg/mL (≈ 1.36 µM) in each case. The IC50 in [2] was 2.5 µg/mL (≈ 6.8 µM); in [3] it was 0.175 µg/mL (≈ 0.476 µM). In addition, the IC90 in data set [2] is 20 µg/mL (≈ 54.4 µM); in data set [3] it was 0.625 µg/mL (≈ 1.7 µM). The “higher affinity for EthA than ETH” value in [4] was about 10 fold. Further, the “effect on wild-type PyrG” value in data set [5] is given as “ineffective”. Moreover, the “loss of PyrG activity” value in data set [6] is listed as “about 80%”. For the same compound, the cytotoxicity entry in [8], in data set [9], in data set [10] and in data set [11] was “not cytotoxic” each time.

`Cc1ccc(C(=O)O)s1` [compound 11326028, 5-methylthiophene-2-carboxylic acid]: the MIC came out at 0.128 µg/mL (≈ 0.9 µM) in [1] (Figure 5, H37Rv); 0.125 µg/mL (≈ 0.879 µM) in data set [1] (setting [14]); 0.128 µg/mL (≈ 0.9 µM) in [1] (setting [18]).

`CC(=O)Cc1ccccc1` [phenylacetone]: in [12] (comparison values, ref Fraaije et al., 2004), the Km is 60 µM. The “kcat (EthA substrate)” value in [12] (ref Fraaije et al., 2004) was 0.027 s⁻¹.

`O=C(CCc1ccccc1)NC(=O)Nc1ccc(N2CCCCC2)cc1` [3-phenyl-N-[(4-piperidin-1-ylphenyl)carbamoyl]propanamide]: the “effect on PyrG enzymatic activity” value in data set [5] is “no effect”.

In the case of `CCc1cc(C(N)=S)ccn1` [ETH, ethionamide, reference compound], the MIC in data set [1] (Mycobacterium tuberculosis, H37RV) worked out at 1 µg/mL (≈ 6.02 µM). In [12], the Km was 340 µM.

Regarding `CC1=CC=C(C(=O)Nc2ccc([N+](=O)[O-])cc2)S1(=O)=O` [compound 11426026], the MIC was found to be 1 µg/mL (≈ 3.4 µM) in [1] (setting [17]); 1 µg/mL (≈ 3.4 µM) in data set [1] (Mycobacterium tuberculosis, H37RV, Table S5, read-out: H37Rv MIC); 4 µg/mL (≈ 13.6 µM) in data set [13]. In addition, in [5], the “% inhibition of wild-type PyrG” value came out at 83.6 ± 3.8%. In addition, the “effect on PyrG enzymatic activity” value in [5] was “inhibit; also recorded: higher degree of inhibition”.

In turn, `COc1ccc(NC(=O)c2cc([N+](=O)[O-])c(C)s2)cc1OC` [compound 11326054] showed a melting point of 200 to 202 °C. In data set [1] (setting [14]), the MIC worked out at 0.25 µg/mL (≈ 0.776 µM). Also, the MIC in data set [1] (setting [18]) worked out at 0.25 µg/mL (≈ 0.776 µM). Moreover, the “kcat (compound as EthA substrate)” value in data set [4] worked out at 0.0163 ± 0.0005 s⁻¹.

`Cc1ccc(C(=O)Nc2ccc([N+](=O)[O-])cc2)[s+]1[O-]` (centres unmarked) [M2]: the “effect on PyrG enzymatic activity” value in data set [5] is “inhibit”.

(Values after publication PMC4521081, “Thiophenecarboxamide Derivatives Activated by EthA Kill Mycobacterium tuberculosis by Inhibiting the CTP Synthetase PyrG” (Chemistry & Biology, 2015).)
